# From patent EP2067787A1, “Method for controlling insect populations” (Boehringer Ingelheim International GmbH, priority 2007, dated 2009)
# Bridge positions count the residues as written; N and C are the ends. Square brackets hold non-standard residues; d marks the D form. Ends that are not written are not given here. Peptide text beside a SMILES is read from it. pGlu = O=C1CC[C@@H](C(=O)O)N1
# T1: CG16752 (Drosophila melanogaster, UniProt Q8SWR3)
# T1 construct: The relevant GPCRs are expressed from constructs prepared by cloning the entire open reading frame in a pcDNA3.1(+) vector; expressed in transfected cells; host or cells: CHO-K1
# T1 sequence (Q8SWR3 1-435): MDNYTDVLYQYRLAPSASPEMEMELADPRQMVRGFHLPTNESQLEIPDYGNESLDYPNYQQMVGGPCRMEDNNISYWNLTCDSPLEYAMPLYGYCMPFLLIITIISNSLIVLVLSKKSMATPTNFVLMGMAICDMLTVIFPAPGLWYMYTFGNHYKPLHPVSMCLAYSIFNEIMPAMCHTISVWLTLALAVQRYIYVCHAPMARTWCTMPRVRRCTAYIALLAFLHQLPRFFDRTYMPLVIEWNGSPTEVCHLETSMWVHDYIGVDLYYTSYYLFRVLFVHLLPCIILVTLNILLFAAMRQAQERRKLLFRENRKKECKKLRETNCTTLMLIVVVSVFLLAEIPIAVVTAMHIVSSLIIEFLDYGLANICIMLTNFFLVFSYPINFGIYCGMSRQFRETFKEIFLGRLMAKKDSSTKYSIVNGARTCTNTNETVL
# T2: CG2114 (Drosophila melanogaster, UniProt Q9VZW5)
# T2 construct: The relevant GPCRs are expressed from constructs prepared by cloning the entire open reading frame in a pcDNA3.1(+) vector; expressed in transfected cells; host or cells: CHO-K1
# T2 sequence (Q9VZW5 1-549): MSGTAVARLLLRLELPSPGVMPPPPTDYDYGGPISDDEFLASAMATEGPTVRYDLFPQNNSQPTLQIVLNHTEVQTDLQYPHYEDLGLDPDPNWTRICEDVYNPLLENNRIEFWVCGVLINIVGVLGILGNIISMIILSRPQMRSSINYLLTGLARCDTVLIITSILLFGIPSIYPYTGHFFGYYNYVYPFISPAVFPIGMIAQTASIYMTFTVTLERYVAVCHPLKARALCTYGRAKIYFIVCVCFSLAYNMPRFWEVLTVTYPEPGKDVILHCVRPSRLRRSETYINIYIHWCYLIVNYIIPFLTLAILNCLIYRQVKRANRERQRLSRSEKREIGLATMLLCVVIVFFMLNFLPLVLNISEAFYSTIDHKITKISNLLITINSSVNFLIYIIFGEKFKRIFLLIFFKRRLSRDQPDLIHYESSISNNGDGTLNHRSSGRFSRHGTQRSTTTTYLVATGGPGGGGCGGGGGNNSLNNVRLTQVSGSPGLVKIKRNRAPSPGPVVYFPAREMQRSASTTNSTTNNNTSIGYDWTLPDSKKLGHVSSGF
# T3: Drosophila melanogaster sex peptide receptor (SPR), GPCR encoded by CG16752 (Drosophila melanogaster, UniProt Q8SWR3 1-435)
# T3 sequence: T1 sequence (Q8SWR3 1-435)
# T4: SPR of Drosophila pseudoobscura (Drosophila pseudoobscura)
# T4 chain: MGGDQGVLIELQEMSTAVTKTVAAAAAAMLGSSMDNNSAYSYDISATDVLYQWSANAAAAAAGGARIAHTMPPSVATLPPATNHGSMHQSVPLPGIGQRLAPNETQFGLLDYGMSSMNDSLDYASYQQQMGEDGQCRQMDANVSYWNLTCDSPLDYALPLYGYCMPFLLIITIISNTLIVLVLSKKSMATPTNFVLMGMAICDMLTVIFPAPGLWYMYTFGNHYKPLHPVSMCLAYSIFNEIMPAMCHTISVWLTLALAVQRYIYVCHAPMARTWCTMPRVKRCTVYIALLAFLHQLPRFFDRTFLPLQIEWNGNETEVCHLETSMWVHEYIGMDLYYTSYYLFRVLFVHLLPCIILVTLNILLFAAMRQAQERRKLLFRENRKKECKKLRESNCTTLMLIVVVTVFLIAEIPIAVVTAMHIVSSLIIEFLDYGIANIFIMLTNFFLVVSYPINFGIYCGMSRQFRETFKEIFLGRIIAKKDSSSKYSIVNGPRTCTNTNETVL
# T5: SPR of Aedes aegypti (Aedes aegypti)
# T5 chain: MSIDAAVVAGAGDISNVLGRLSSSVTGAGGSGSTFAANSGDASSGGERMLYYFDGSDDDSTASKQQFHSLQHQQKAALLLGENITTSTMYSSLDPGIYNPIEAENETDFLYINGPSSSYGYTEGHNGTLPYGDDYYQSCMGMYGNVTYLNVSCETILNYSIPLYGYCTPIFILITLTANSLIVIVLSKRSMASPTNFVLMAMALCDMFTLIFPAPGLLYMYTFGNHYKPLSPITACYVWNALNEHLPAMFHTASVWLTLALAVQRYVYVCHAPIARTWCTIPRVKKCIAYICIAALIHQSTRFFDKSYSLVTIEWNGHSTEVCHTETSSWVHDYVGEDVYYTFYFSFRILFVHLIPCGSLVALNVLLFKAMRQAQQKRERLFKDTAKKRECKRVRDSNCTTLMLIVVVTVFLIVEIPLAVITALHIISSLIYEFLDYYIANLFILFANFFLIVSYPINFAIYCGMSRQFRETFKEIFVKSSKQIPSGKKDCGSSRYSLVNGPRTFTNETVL
# T6: SPR of Bombyx mori (Bombyx mori)
# T6 chain: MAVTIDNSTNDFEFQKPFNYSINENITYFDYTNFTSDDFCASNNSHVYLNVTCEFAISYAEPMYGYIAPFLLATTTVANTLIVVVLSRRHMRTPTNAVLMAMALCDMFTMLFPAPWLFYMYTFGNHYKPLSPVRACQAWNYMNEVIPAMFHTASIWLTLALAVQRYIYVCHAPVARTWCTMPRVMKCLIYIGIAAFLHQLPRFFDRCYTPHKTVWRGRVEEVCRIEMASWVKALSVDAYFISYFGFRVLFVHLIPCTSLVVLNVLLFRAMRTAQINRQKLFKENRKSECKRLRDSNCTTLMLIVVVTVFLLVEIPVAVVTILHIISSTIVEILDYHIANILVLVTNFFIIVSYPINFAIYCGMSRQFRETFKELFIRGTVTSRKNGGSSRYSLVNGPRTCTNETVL
# B1: synthetic sex peptide (SP) of Drosophila melanogaster (peptide)
# peptide: WEWPWNRKPTKFPIPSPNPRDKWCRLNLGPAWGGRC
# modifications: disulfide 24-36 (inferred); also: hydroxyproline at some P residues, places not given here
# What was measured:
# CG16752 = molecular target: T1, CG16752; assay: CHO cell aequorin luminescence (Ca2+) assay; type: cell-based; details: for Ca^2+ responses: 0.1µM or 10µM SP
# CG8784 = assay: CHO cell aequorin luminescence assay, related GPCR; type: cell-based, Drosophila; details: 10µM peptide; CHO cells expressing CG8784 and aequorin
# virgin females = assay: Receptivity of virgin females after SP injection; type: in vivo, Drosophila; details: assayed 5 h after injection
# Helicoverpa armigera = details: Fan et al., 1999 and 2000; cited from earlier work
# CG2114 = molecular target: T2, CG2114; assay: CHO cell aequorin luminescence assay, related GPCR; type: cell-based; details: 10µM peptide; CHO cells expressing CG2114 and aequorin
# B. mori SPR = assay: CHO cell aequorin luminescence assay, insect SPR orthologue; type: cell-based, Bombyx mori; details: CHO cells expressing SPR, aequorin and Gαqi
# D. pseudoobscura SPR = assay: as above; type: cell-based; details: CHO cells expressing SPR, aequorin and Gαqi
# A. aegypti SPR = assay: as above; type: cell-based, Aedes aegypti; details: CHO cells expressing SPR, aequorin and Gαqi
# [1] = Saudan et al., 2002; cited from earlier work
# [2] = molecular target: T3, Drosophila melanogaster sex peptide …; assay: cell-based or functional assay
# [3] = molecular target: T4, SPR of Drosophila pseudoobscura; assay: cell-based or functional assay
# SPR of Aedes aegypti = molecular target: T5, SPR of Aedes aegypti; assay: cell-based or functional assay
# SPR of Bombyx mori = molecular target: T6, SPR of Bombyx mori; assay: cell-based or functional assay
molecule,measurement,setting,value
"pQLQSNGEPAYRVRTPRLa ([pGlu]LQSNGEPAYRVRTPRL-NH2; SMILES CC(C)C[C@H](NC(=O)[C@H](CCCNC(=N)N)NC(=O)[C@@H]1CCCN1C(=O)[C@@H](NC(=O)[C@H](CCCNC(=N)N)NC(=O)[C@@H](NC(=O)[C@H](CCCNC(=N)N)NC(=O)[C@H](Cc1ccc(O)cc1)NC(=O)[C@H](C)NC(=O)[C@@H]1CCCN1C(=O)[C@H](CCC(=O)O)NC(=O)CNC(=O)[C@H](CC(N)=O)NC(=O)[C@H](CO)NC(=O)[C@H](CCC(N)=O)NC(=O)[C@H](CC(C)C)NC(=O)[C@@H]1CCC(=O)N1)C(C)C)[C@@H](C)O)C(N)=O) [hugin-γ, ligand of CG8784]",activation of receptor by peptide ligand,"CG16752; 10µM peptide, co-transfected with Gαqi",Neither of these peptides activates
same,sensitivity to peptide ligand,CG8784,confer sensitivity
CC[C@H](C)[C@H](NC(=O)[C@@H]1C[C@@H](O)CN1C(=O)[C@H](Cc1ccccc1)NC(=O)[C@H](CCCCN)NC(=O)[C@@H](NC(=O)[C@@H]1C[C@@H](O)CN1C(=O)[C@H](CCCCN)NC(=O)[C@H](CCCNC(=N)N)NC(=O)[C@H](CC(N)=O)NC(=O)[C@H](Cc1c[nH]c2ccccc12)NC(=O)[C@@H]1CCCN1C(=O)[C@H](Cc1c[nH]c2ccccc12)NC(=O)[C@H](CCC(=O)O)NC(=O)[C@@H](N)Cc1c[nH]c2ccccc12)[C@@H](C)O)C(=O)N1C[C@H](O)C[C@H]1C(=O)N[C@@H](CO)C(=O)N1C[C@H](O)C[C@H]1C(=O)N[C@@H](CC(N)=O)C(=O)N1C[C@H](O)C[C@H]1C(=O)N[C@@H](CCCNC(=N)N)C(=O)N[C@@H](CC(=O)O)C(=O)N[C@@H](CCCCN)C(=O)N[C@@H](Cc1c[nH]c2ccccc12)C(=O)N[C@H]1CSSC[C@@H](C(=O)O)NC(=O)[C@H](CCCNC(=N)N)NC(=O)CNC(=O)CNC(=O)[C@H](Cc2c[nH]c3ccccc23)NC(=O)[C@H](C)NC(=O)[C@@H]2CCCN2C(=O)CNC(=O)[C@H](CC(C)C)NC(=O)[C@H](CC(N)=O)NC(=O)[C@H](CC(C)C)NC(=O)[C@H](CCCNC(=N)N)NC1=O [SP],Ca^2+ responses,CG16752; cotransfected chimeric G protein Gαqi,robust Ca^2+ responses
same,Ca^2+ responses,CG16752; cotransfected chimeric G protein Gαqo,robust Ca^2+ responses
same,Ca^2+ responses,CG16752; cotransfected chimeric G protein Gαqs,not Gαqs
same,luminescence response,"CG16752; no additional G protein (endogenous Gαq/11), concentrations as high as 10µM",very weak response
same,receptivity to naive males,"virgin females; Df(1)Exel6234 homozygous virgins, 12pmol SP injected",remaine receptive
same,receptivity to naive males,"virgin females; wild-type virgins, 12pmol SP injected into haemolymph",unreceptive
same,post-mating responses,Helicoverpa armigera,can induce post-mating responses
same,sensitivity to peptide ligand,CG8784,not to SP
same,sensitivity to peptide ligand,CG2114,not to SP
same,EC50,B. mori SPR,63 nM
same,EC50,D. pseudoobscura SPR,4.3 nM
same,EC50,A. aegypti SPR,167 nM
CC[C@H](C)[C@H](NC(=O)[C@H](Cc1c[nH]c2ccccc12)NC(=O)[C@H](CCC(=O)O)NC(=O)[C@@H](NC(=O)[C@H](CC(=O)O)NC(=O)[C@H](CC(N)=O)NC(=O)[C@H](CCCNC(=N)N)NC(=O)[C@H](CC(=O)O)NC(=O)[C@@H]1CCC(=O)N1)[C@@H](C)O)C(=O)N[C@@H](CCC(N)=O)C(=O)N[C@@H](CO)C(=O)N[C@@H](CCC(N)=O)C(=O)N[C@@H](CCCCN)C(=O)N[C@@H](CC(=O)O)C(=O)N[C@@H](CCCNC(=N)N)C(=O)N[C@@H](CCC(=O)O)C(=O)N[C@@H](CCCCN)C(=O)N[C@@H](Cc1c[nH]c2ccccc12)C(=O)N[C@H]1CSSC[C@@H](C(=O)O)NC(=O)[C@H](CCCNC(=N)N)NC(=O)CNC(=O)CNC(=O)[C@H](CC(C)C)NC(=O)[C@H](Cc2ccc(O)cc2)NC(=O)[C@@H]2CCCN2C(=O)CNC(=O)[C@H](CC(C)C)NC(=O)[C@H](CC(N)=O)NC(=O)[C@H](CC(C)C)NC(=O)[C@H](CCCNC(=N)N)NC1=O [DUP99B] ([pGlu]DRNDTEWIQSQKDREKWCRLNLGPYLGGRC-OH; disulfide 19-31),response of receptor to peptide,B. mori SPR,lower sensitivity
same,response of receptor to peptide,D. pseudoobscura SPR,lower sensitivity
same,post-mating responses,[1],can induce the same post-mating responses as SP
same,response of receptor to peptide,A. aegypti SPR,lower sensitivity
[pGlu]DRNDTEWIQSQKDREKWCRLNLGPYLGGRC (disulfide 19-31 (inferred)) [synthetic DUP99B],"EC50, dose-response of luminescence in CHO cells expressing CG16752, aequorin and Gαqi",[2],7.3 nM
B1,"EC50, dose-response of luminescence in CHO cells expressing the SPR, aequorin and Gαqi",[3],4.3 nM
same,"EC50, dose-response of luminescence in CHO cells expressing CG16752, aequorin and Gαqi",[2],1.3 nM
same,"EC50, dose-response of luminescence in CHO cells expressing the SPR, aequorin and Gαqi",SPR of Aedes aegypti,167 nM
same,"EC50, dose-response of luminescence in CHO cells expressing the SPR, aequorin and Gαqi",SPR of Bombyx mori,63 nM
